Assays:
[1] = MTD stated with the xenograft dosing; details: CD1 Nude, mouse, in vivo; mice
Description: Treatment with test agents was initiated when the mean individual tumour volume exceeded 1,000 mm^3. The mice were dosed at day 11 and day 22—([…] 10 mg/kg, VePesid 5 mg/kg, MTD […] 22 mg/kg (a non toxic form of 17AAG which can be tolerated at much higher doses) MTD VePesid 70 mg/kg.

E.coli JGT11 (htpG null) = assay: Agar sensitivity plates, htpG null mutant; assay type: cell-based
Description: (§1) 200 μl of an overnight culture of E.coli strains was spread over the surface of a LB plate. The plates were incubated for three hours at 37° C., and the discs (50 μl of drug) placed onto the plates that were then incubated at 37° C. overnight.
(§2) The plates were photographed the following day with Fluor-S™ Quantity 1 program and the results are illustrated in FIG. 18.
(§3) The inhibition of bacterial cell growth was assessed by examining the zones of inhibition around each disc containing the topo II inhibitor.

E.coli MC4100 = assay: Agar sensitivity plates, parental strain; assay type: cell-based; details: for zone of inhibition: parental strain MC4100
Description: as §1, §2, §3

HtpG = HtpG (Escherichia coli, UniProt P0A6Z3); details: in vitro; cited from earlier work
HtpG, sequence (P0A6Z3 whole entry): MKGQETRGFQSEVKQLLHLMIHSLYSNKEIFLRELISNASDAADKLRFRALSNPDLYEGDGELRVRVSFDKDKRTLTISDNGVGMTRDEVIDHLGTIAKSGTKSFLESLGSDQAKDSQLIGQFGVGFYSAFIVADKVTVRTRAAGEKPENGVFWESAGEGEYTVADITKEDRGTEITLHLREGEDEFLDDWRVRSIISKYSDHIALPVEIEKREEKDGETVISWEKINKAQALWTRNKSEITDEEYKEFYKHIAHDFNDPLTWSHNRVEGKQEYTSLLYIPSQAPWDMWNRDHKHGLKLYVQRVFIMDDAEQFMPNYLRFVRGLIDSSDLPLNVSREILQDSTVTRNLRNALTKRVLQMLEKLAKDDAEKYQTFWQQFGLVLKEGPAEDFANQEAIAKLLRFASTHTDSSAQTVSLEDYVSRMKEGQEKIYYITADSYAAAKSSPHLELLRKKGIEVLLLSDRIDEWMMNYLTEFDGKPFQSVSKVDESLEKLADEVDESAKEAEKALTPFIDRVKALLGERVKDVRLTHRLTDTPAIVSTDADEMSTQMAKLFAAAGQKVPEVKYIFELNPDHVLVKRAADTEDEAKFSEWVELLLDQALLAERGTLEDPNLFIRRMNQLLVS

COc1cc([C@@H]2c3cc4c(cc3[C@@H](O[C@@H]3O[C@@H]5CO[C@@H](C)O[C@H]5[C@H](O)[C@H]3O)[C@H]3COC(=O)[C@H]23)OCO4)cc(OC)c1O [VePesid, Etoposide]
MTD [1]: 70 mg/kg

O=C(O)c1cn(C2CC2)c2cc(N3CCNCC3)c(F)cc2c1=O [Ciprofloxacin]
effect on growth versus parental strain (FIG. 18) (E.coli JGT11 (htpG null); JGT11, even at concentrations as low as 0.01 μM): significantly greater effect | inhibition of growth (zones of inhibition) versus MC4100 (E.coli JGT11 (htpG null); htpG null mutant, discs in the range of 0.6-0.01 μM): increased inhibition | inhibition of growth (zones of inhibition) (E.coli MC4100; MC4100, discs in the range of 0.6-0.01 μM): some inhibition of growth | zone of inhibition (E.coli MC4100; 0.025 μM): no zone of inhibition | zone of inhibition (E.coli MC4100; 0.1 μM): reduced zone of inhibition

COC1=C2C[C@@H](C)C[C@H](OC)[C@H](O)[C@@H](C)/C=C(\C)[C@H](OC(N)=O)[C@@H](OC)/C=C\C=C(/C)C(=O)NC(=CC1=O)C2=O [Geldanamycin]
activity of HtpG (HtpG): inhibits | MTD [1]: 22 mg/kg

From US20050245466A1, “Use of topoisomerase inhibitors and heat shock protein 90 inhibitors for use in chemotherapy” (THE UNIVERSITY OF LIVERPOOL, priority 2002, published 2005)
